Data on nine compounds can be found in PubChem BioAssay (NCI).

Common to all, as to test: inhibition of tumour cell growth, NCI panel, 48 h
The test system of assay [1] is SN12C renal.
Assay [2] concerns MALME-3M melanoma.
Assay [3] has as its system SF-539 CNS.
Assay [4] concerns LOX IMVI melanoma.
Assay [5] has as its system TK-10 renal.
Assay [6] deals with HL-60(TB) leukemia.
Assay [7] deals with HCT-116 colon.
The subject of assay [8] is SK-MEL-5 melanoma.
Assay [9] has as its system SNB-19 CNS.
Assay [10] relates to SK-OV-3 ovarian.

Molecules are shown by their SMILES.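 Each compound was tested at five concentrations against cells in 96-well plates for 48 hours. GI50 = concentration required for 50% inhibition of growth. At the TGI there is no net growth.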 Some results are limits rather than exact numbers.

Take `COc1cc(OC)c(C(=O)/C=C/c2cccc(OC(C)=O)c2)cc1CC=C(C)C`: the GI50 in [1] was 9.87 µM; in assay [2], 10.6 µM; in assay [3], 8.62 µM; in assay [4], 6.29 µM; in assay [5] it was 23.6 µM; in assay [6] it was 13.3 µM. Moreover, the GI50 in assay [7] was 3 µM; in [8] it was 6.47 µM; in assay [9], 9.2 µM; in [10] it was 10.9 µM. The TGI in assay [1] was above 50 µM; in assay [2] it was 33.3 µM; in [3], 16.2 µM; in assay [4], 13.1 µM; in assay [5], above 50 µM; in [6], above 50 µM. For the same compound, the TGI was determined as 9.78 µM in assay [7], 13.3 µM in [8], 17.2 µM in [9] and 28.2 µM in assay [10].
With `NC(=O)c1ccc2nc3c(n2c1)C(=O)C(=O)c1ccccc1-3`, the GI50 in assay [1] is 0.965 µM; in assay [2] it was 0.171 µM; in assay [3] it was 0.621 µM; in [4], 0.264 µM; in assay [5], 1.82 µM; in [6] it was 2.12 µM. Also, the GI50 is 0.327 µM in assay [7], 0.936 µM in assay [8], 1.1 µM in assay [9] and 1.78 µM in assay [10]. Also, the TGI in assay [1] was 2.33 µM; in [2], 0.311 µM; in [3], 1.85 µM; in assay [4] it was 0.787 µM; in assay [5], 3.23 µM; in assay [6] it was 5.18 µM. Also, the TGI is 1.21 µM in assay [7], 2.25 µM in [8], 2.31 µM in assay [9] and 3.18 µM in assay [10].
As to `O=C(COc1cccc(/C=C2\CSc3ccccc3C2=O)c1)c1ccc(Cl)cc1`, the GI50 in assay [1] was 2.54 µM; in [2], 2.01 µM; in [3] it was 3.05 µM; in [4], 1.39 µM; in assay [5] it was 1.88 µM; in [6] it was 3.57 µM. Moreover, the GI50 in [7] was 0.689 µM; in assay [8] it was 1.8 µM; in assay [9], 3.18 µM; in assay [10], 8.97 µM. Further, the TGI is 8.47 µM in assay [1]; 4.76 µM in assay [2]; 8.22 µM in [3]; 2.73 µM in assay [4]; 4.42 µM in assay [5]; above 21 µM in [6]. In addition, the TGI in assay [7] came to 1.95 µM; in assay [8] it was 3.41 µM; in assay [9] it was 9.38 µM; in assay [10], 41.9 µM.
`N#C/C(=C\c1ccc(Br)cc1)n1nnc2ccccc21`: the GI50 in assay [1] is 0.525 µM; in assay [2] it was 0.727 µM; in assay [3], 0.513 µM; in assay [4], 0.319 µM; in assay [5], 2.69 µM; in [6], 0.287 µM. In addition, the GI50 in assay [7] was 0.518 µM; in [8], 0.999 µM; in [9] it was 0.763 µM; in [10] it was 5.11 µM. For the same compound, the TGI in assay [1] amounted to 3.48 µM; in [2], 2.78 µM; in assay [3], 1.86 µM; in assay [4], 1.19 µM; in [5], 6.8 µM; in assay [6], 2.04 µM. Besides, the TGI in [7] was determined as 1.93 µM; in assay [8] it was 2.32 µM; in [9] it was 2.41 µM; in assay [10] it was 22.1 µM.
For `O=C(Nc1ccccc1)Nc1cccc(Oc2nnc(Cl)c3ccccc23)c1`, the GI50 in assay [1] was 6.72 µM; in [2], 1.62 µM; in assay [3], 2.81 µM; in assay [4] it was 3.46 µM; in assay [5], 6.08 µM; in assay [6], 2.7 µM. Also, the GI50 in assay [7] is 3.06 µM; in assay [8], 4.56 µM; in assay [9], 1.67 µM; in assay [10], 1.46 µM. For the same compound, the TGI was above 25 µM in assay [1]; 5.93 µM in assay [2]; 6.4 µM in assay [3]; 6.8 µM in assay [4]; 14.9 µM in assay [5]; above 25 µM in assay [6]. In addition, the TGI in assay [7] was determined as 9.77 µM; in assay [8] it was 18.6 µM; in assay [9], 8.46 µM; in assay [10], 5.51 µM.
Regarding `CN1CCN(c2ccc(C(=O)Nc3cc(-c4cccc(NS(=O)(=O)c5ccccc5)c4)[nH]n3)cc2)CC1`, the GI50 in assay [1] is 7.82 µM; in [2], 9.87 µM; in [3], 1.79 µM; in assay [4], 3.05 µM; in [5], 12.4 µM; in assay [6] it was 3.94 µM. Besides, the GI50 in assay [7] is 4.68 µM; in [8] it was 4.17 µM; in [9], 14.2 µM; in [10], 11.7 µM. For the same compound, the TGI worked out at 24 µM in assay [1]; 26.7 µM in [2]; 9.57 µM in assay [3]; 13.2 µM in assay [4]; 26.7 µM in assay [5]; 16.1 µM in assay [6]. The TGI in assay [7] amounted to 17.4 µM; in assay [8] it was 9.23 µM; in assay [9], 32.2 µM; in assay [10] it was 30.9 µM.
`COc1ccc(/C=C/NC=O)cc1`: the TGI in assay [1], in assay [2], in assay [3], in [4], in assay [5] and in assay [6] was above 100 µM each time. Further, the TGI in assay [7], in assay [8], in [9] and in assay [10] was above 100 µM throughout.
Regarding `C=C1C(=O)OC2CC(C)C3C=CC(=O)C3CC12` (stereo not given), the TGI in assay [1] is 5.19 µM; in assay [2], 4.08 µM; in assay [3], 4.92 µM; in [4], 2.69 µM; in assay [5], 8.07 µM; in assay [6], 4.95 µM. The TGI in assay [7] was determined as 2.7 µM; in assay [8], 6.04 µM; in assay [9] it was 37.7 µM; in assay [10], 33.3 µM.
For the compound `CC(=O)/C=C/c1ccc(C)cc1`, the TGI in assay [1], in assay [2], in assay [3], in [4], in [5] and in assay [6] was above 100 µM each time. Also, the TGI in assay [7], in [8], in assay [9] and in assay [10] was above 100 µM throughout.
